Measured values published in ChEMBL document CHEMBL5370644, “Subplenones A-J: Dimeric Xanthones with Antibacterial Activity from the Endophytic Fungus Subplenodomus sp. CPCC 401465” (2023).
In brackets after ≈: the same amount, converted by molar mass.

test system: Staphylococcus aureus; test: Antibacterial activity against methicillin-resistant Staphylococcus aureus ATCC 43300 assessed as bacterial growth inhibition incubated for 16 to 20 hrs by CLSI based two-fold serial dilution method; type: functional; conditions: time 16-20 hrs

| SMILES | MIC [µg/mL] |
| --- | --- |
| CC1=CC(O)=C2C(=O)c3c(ccc(-c4ccc5c(c4O)C(=O)C4=C(O)C=C(C)[C@H](O)[C@]4(C)O5)c3O)O[C@@]2(C)[C@H]1O | 4 (≈ 7.32 µM) |
| CC1=CC(O)=C2C(=O)c3c(O)ccc(-c4ccc5c(c4O)C(=O)C4=C(O)C=C(C)[C@H](O)[C@]4(C)O5)c3O[C@@]2(C)C1=O | 0.5 (≈ 0.918 µM) |
| CC1=CC(O)=C2C(=O)c3c(ccc(-c4ccc5c(c4O)C(=O)C4=C(O)C=C(C)[C@H](O)[C@]4(C)O5)c3O)O[C@]2(C)C1=O | 0.5 (≈ 0.918 µM) |
| CC1=CC(O)=C2C(=O)c3c(ccc(-c4ccc5c(c4O)C(=O)[C@@]4(O)C(=O)C=C(C)[C@H](O)[C@]4(C)O5)c3O)O[C@]2(C)[C@H]1O | 4 (≈ 7.11 µM) |
| CC1=CC(O)=C2C(=O)c3c(ccc(-c4ccc5c(c4O)C(=O)C4=C(O)C=C(C)C(=O)[C@]4(C)O5)c3O)O[C@@]2(C)C1=O | 1 (≈ 1.84 µM) |
| C[C@H]1COc2c(N3CCN(C)CC3)c(F)cc3c(=O)c(C(=O)O)cn1c23 [LEVOFLOXACIN ANHYDROUS] | 0.125 (≈ 0.346 µM) |

test system: Staphylococcus aureus; test: Antibacterial activity against methicillin-resistant Staphylococcus aureus ATCC 700698 assessed as bacterial growth inhibition incubated for 16 to 20 hrs by CLSI based two-fold serial dilution method; type: functional; conditions: time 16-20 hrs

| SMILES | MIC [µg/mL] |
| --- | --- |
| CC1=CC(O)=C2C(=O)c3c(ccc(-c4ccc5c(c4O)C(=O)C4=C(O)C=C(C)[C@H](O)[C@]4(C)O5)c3O)O[C@@]2(C)[C@H]1O | 2 (≈ 3.66 µM) |
| CC1=CC(O)=C2C(=O)c3c(O)ccc(-c4ccc5c(c4O)C(=O)C4=C(O)C=C(C)[C@H](O)[C@]4(C)O5)c3O[C@@]2(C)C1=O | 0.25 (≈ 0.459 µM) |
| CC1=CC(O)=C2C(=O)c3c(ccc(-c4ccc5c(c4O)C(=O)C4=C(O)C=C(C)[C@H](O)[C@]4(C)O5)c3O)O[C@]2(C)C1=O | 0.25 (≈ 0.459 µM) |
| CC1=CC(O)=C2C(=O)c3c(ccc(-c4ccc5c(c4O)C(=O)[C@@]4(O)C(=O)C=C(C)[C@H](O)[C@]4(C)O5)c3O)O[C@]2(C)[C@H]1O | 4 (≈ 7.11 µM) |
| CC1=CC(O)=C2C(=O)c3c(ccc(-c4ccc5c(c4O)C(=O)C4=C(O)C=C(C)C(=O)[C@]4(C)O5)c3O)O[C@@]2(C)C1=O | 0.5 (≈ 0.922 µM) |
| C[C@H]1COc2c(N3CCN(C)CC3)c(F)cc3c(=O)c(C(=O)O)cn1c23 [LEVOFLOXACIN ANHYDROUS] | 0.125 (≈ 0.346 µM) |

test system: Staphylococcus aureus; test: Antibacterial activity against methicillin-sensitive Staphylococcus aureus ATCC 29213 assessed as bacterial growth inhibition incubated for 16 to 20 hrs by CLSI based two-fold serial dilution method; type: functional; conditions: time 16-20 hrs

| SMILES | MIC [µg/mL] |
| --- | --- |
| CC1=CC(O)=C2C(=O)c3c(ccc(-c4ccc5c(c4O)C(=O)C4=C(O)C=C(C)[C@H](O)[C@]4(C)O5)c3O)O[C@@]2(C)[C@H]1O | 2 (≈ 3.66 µM) |
| CC1=CC(O)=C2C(=O)c3c(O)ccc(-c4ccc5c(c4O)C(=O)C4=C(O)C=C(C)[C@H](O)[C@]4(C)O5)c3O[C@@]2(C)C1=O | 0.5 (≈ 0.918 µM) |
| CC1=CC(O)=C2C(=O)c3c(ccc(-c4ccc5c(c4O)C(=O)C4=C(O)C=C(C)[C@H](O)[C@]4(C)O5)c3O)O[C@]2(C)C1=O | 0.5 (≈ 0.918 µM) |
| CC1=CC(O)=C2C(=O)c3c(ccc(-c4ccc5c(c4O)C(=O)[C@@]4(O)C(=O)C=C(C)[C@H](O)[C@]4(C)O5)c3O)O[C@]2(C)[C@H]1O | 4 (≈ 7.11 µM) |
| CC1=CC(O)=C2C(=O)c3c(ccc(-c4ccc5c(c4O)C(=O)C4=C(O)C=C(C)C(=O)[C@]4(C)O5)c3O)O[C@@]2(C)C1=O | 1 (≈ 1.84 µM) |
| C[C@H]1COc2c(N3CCN(C)CC3)c(F)cc3c(=O)c(C(=O)O)cn1c23 [LEVOFLOXACIN ANHYDROUS] | 0.125 (≈ 0.346 µM) |

test system: Enterococcus faecalis; test: Antibacterial activity against vancomycin-resistant Enterococcus faecalis ATCC 51299 assessed as bacterial growth inhibition incubated for 16 to 20 hrs by CLSI based two-fold serial dilution method; type: functional; conditions: time 16-20 hrs

| SMILES | MIC [µg/mL] |
| --- | --- |
| CC1=CC(O)=C2C(=O)c3c(ccc(-c4ccc5c(c4O)C(=O)C4=C(O)C=C(C)[C@H](O)[C@]4(C)O5)c3O)O[C@@]2(C)[C@H]1O | 128 (≈ 234 µM) |
| CC1=CC(O)=C2C(=O)c3c(O)ccc(-c4ccc5c(c4O)C(=O)C4=C(O)C=C(C)[C@H](O)[C@]4(C)O5)c3O[C@@]2(C)C1=O | 2 (≈ 3.67 µM) |
| CC1=CC(O)=C2C(=O)c3c(ccc(-c4ccc5c(c4O)C(=O)C4=C(O)C=C(C)[C@H](O)[C@]4(C)O5)c3O)O[C@]2(C)C1=O | 2 (≈ 3.67 µM) |
| CC1=CC(O)=C2C(=O)c3c(ccc(-c4ccc5c(c4O)C(=O)[C@@]4(O)C(=O)C=C(C)[C@H](O)[C@]4(C)O5)c3O)O[C@]2(C)[C@H]1O | 16 (≈ 28.4 µM) |
| CC1=CC(O)=C2C(=O)c3c(ccc(-c4ccc5c(c4O)C(=O)C4=C(O)C=C(C)C(=O)[C@]4(C)O5)c3O)O[C@@]2(C)C1=O | 4 (≈ 7.37 µM) |
| C[C@H]1COc2c(N3CCN(C)CC3)c(F)cc3c(=O)c(C(=O)O)cn1c23 [LEVOFLOXACIN ANHYDROUS] | 1 (≈ 2.77 µM) |

test system: Enterococcus faecium; test: Antibacterial activity against vancomycin-resistant Enterococcus faecium ATCC 700221 assessed as bacterial growth inhibition incubated for 16 to 20 hrs by CLSI based two-fold serial dilution method; type: functional; conditions: time 16-20 hrs

| SMILES | MIC [µg/mL] |
| --- | --- |
| CC1=CC(O)=C2C(=O)c3c(ccc(-c4ccc5c(c4O)C(=O)C4=C(O)C=C(C)[C@H](O)[C@]4(C)O5)c3O)O[C@@]2(C)[C@H]1O | 16 (≈ 29.3 µM) |
| CC1=CC(O)=C2C(=O)c3c(O)ccc(-c4ccc5c(c4O)C(=O)C4=C(O)C=C(C)[C@H](O)[C@]4(C)O5)c3O[C@@]2(C)C1=O | 0.5 (≈ 0.918 µM) |
| CC1=CC(O)=C2C(=O)c3c(ccc(-c4ccc5c(c4O)C(=O)C4=C(O)C=C(C)[C@H](O)[C@]4(C)O5)c3O)O[C@]2(C)C1=O | 0.5 (≈ 0.918 µM) |
| CC1=CC(O)=C2C(=O)c3c(ccc(-c4ccc5c(c4O)C(=O)[C@@]4(O)C(=O)C=C(C)[C@H](O)[C@]4(C)O5)c3O)O[C@]2(C)[C@H]1O | 4 (≈ 7.11 µM) |
| CC1=CC(O)=C2C(=O)c3c(ccc(-c4ccc5c(c4O)C(=O)C4=C(O)C=C(C)C(=O)[C@]4(C)O5)c3O)O[C@@]2(C)C1=O | 1 (≈ 1.84 µM) |
| C[C@H]1COc2c(N3CCN(C)CC3)c(F)cc3c(=O)c(C(=O)O)cn1c23 [LEVOFLOXACIN ANHYDROUS] | > 64 |

test system: Enterococcus faecalis; test: Antibacterial activity against vancomycin-sensitive Enterococcus faecalis ATCC 29212 assessed as bacterial growth inhibition incubated for 16 to 20 hrs by CLSI based two-fold serial dilution method; type: functional; conditions: time 16-20 hrs

| SMILES | MIC [µg/mL] |
| --- | --- |
| CC1=CC(O)=C2C(=O)c3c(ccc(-c4ccc5c(c4O)C(=O)C4=C(O)C=C(C)[C@H](O)[C@]4(C)O5)c3O)O[C@@]2(C)[C@H]1O | 128 (≈ 234 µM) |
| CC1=CC(O)=C2C(=O)c3c(O)ccc(-c4ccc5c(c4O)C(=O)C4=C(O)C=C(C)[C@H](O)[C@]4(C)O5)c3O[C@@]2(C)C1=O | 2 (≈ 3.67 µM) |
| CC1=CC(O)=C2C(=O)c3c(ccc(-c4ccc5c(c4O)C(=O)C4=C(O)C=C(C)[C@H](O)[C@]4(C)O5)c3O)O[C@]2(C)C1=O | 2 (≈ 3.67 µM) |
| CC1=CC(O)=C2C(=O)c3c(ccc(-c4ccc5c(c4O)C(=O)[C@@]4(O)C(=O)C=C(C)[C@H](O)[C@]4(C)O5)c3O)O[C@]2(C)[C@H]1O | 16 (≈ 28.4 µM) |
| CC1=CC(O)=C2C(=O)c3c(ccc(-c4ccc5c(c4O)C(=O)C4=C(O)C=C(C)C(=O)[C@]4(C)O5)c3O)O[C@@]2(C)C1=O | 4 (≈ 7.37 µM) |
| C[C@H]1COc2c(N3CCN(C)CC3)c(F)cc3c(=O)c(C(=O)O)cn1c23 [LEVOFLOXACIN ANHYDROUS] | 1 (≈ 2.77 µM) |

test system: Staphylococcus epidermidis; test: Antibacterial activity against methicillin-sensitive Staphylococcus epidermidis ATCC 12228 assessed as bacterial growth inhibition incubated for 16 to 20 hrs by CLSI based two-fold serial dilution method; type: functional; conditions: time 16-20 hrs

| SMILES | MIC [µg/mL] |
| --- | --- |
| CC1=CC(O)=C2C(=O)c3c(ccc(-c4ccc5c(c4O)C(=O)C4=C(O)C=C(C)[C@H](O)[C@]4(C)O5)c3O)O[C@@]2(C)[C@H]1O | 1 (≈ 1.83 µM) |
| CC1=CC(O)=C2C(=O)c3c(O)ccc(-c4ccc5c(c4O)C(=O)C4=C(O)C=C(C)[C@H](O)[C@]4(C)O5)c3O[C@@]2(C)C1=O | ≤ 0.125 |
| CC1=CC(O)=C2C(=O)c3c(ccc(-c4ccc5c(c4O)C(=O)C4=C(O)C=C(C)[C@H](O)[C@]4(C)O5)c3O)O[C@]2(C)C1=O | ≤ 0.125 |
| CC1=CC(O)=C2C(=O)c3c(ccc(-c4ccc5c(c4O)C(=O)[C@@]4(O)C(=O)C=C(C)[C@H](O)[C@]4(C)O5)c3O)O[C@]2(C)[C@H]1O | 0.5 (≈ 0.889 µM) |
| CC1=CC(O)=C2C(=O)c3c(ccc(-c4ccc5c(c4O)C(=O)C4=C(O)C=C(C)C(=O)[C@]4(C)O5)c3O)O[C@@]2(C)C1=O | 0.25 (≈ 0.461 µM) |
| C[C@H]1COc2c(N3CCN(C)CC3)c(F)cc3c(=O)c(C(=O)O)cn1c23 [LEVOFLOXACIN ANHYDROUS] | 0.25 (≈ 0.692 µM) |
